This is an account of results in US20250281617A1, “Drug Delivery System” (The University of Birmingham, priority 2019, published 2025).

The nature of data set [1]: Delivery of fluorescent (FAM-tagged) peptide across chicken egg epithelial membrane with polyamine/amine carrier. The following applies: fold versus control without carrier; Example 5.
The conditions of data set [2]: chicken, 60 seconds.
The nature of data set [3]: Delivery of lutein across chicken egg epithelial membrane with polyamine/amine carrier. As to the method: The membrane was washed in deionized water.
Lutein is a naturally occurring carotenoid that reduces the progression of age-related macular degeneration and cataracts. Lutein has a characteristic absorbance which can be measured using a plate reader, and thus it was not necessary to label the lutein with FAM. The absorbance of the solution which had crossed the membrane was measured and compared to the absorbance of the stock solution.

The nature of data set [4]: Delivery of fluorescence-labelled bevacizumab across chicken egg epithelial membrane with polyamine/amine carrier. The following applies: for improvement in the amount of bevacizumab transported across the membrane: versus control without carrier; for improvement in the amount of bevacizumab transported across the membrane / amount of bevacizumab transported across the membrane compared to the control sample: Example 5; for amount of bevacizumab transported across the membrane compared to the control sample: fold versus control without carrier.

The conditions of data set [5]: chicken, 60 seconds. This is another data set of the same source.
Data set [6] in a line: Delivery of fluorescence-labelled bevacizumab into the posterior segment of ex vivo porcine eyes. The conditions noted are these: various incubation times. The class given is in vitro ADME. On the procedure:
Further tests on porcine eyes was carried out with fluorescence-labelled bevacizumab. […] The same methodology as described in Example 3 was used, but with various incubation times.

Setting [7] is: versus control without carrier, Example 5.

Like-named read-outs stand apart in the source and are kept apart here. A value given as a limit tells only on which side of the number the result lay.

`NCCCNCCNCCCN` [1,2-Bis(3-aminopropylamino)ethane]: in data set [1], the “amount of peptide transported across the membrane compared with the control test” value (“amount … compared with the control test” below) is on record as “twice as much peptide”. In addition, the “% peptide transported across membrane” value in data set [2] is listed as 14.1%; in data set [3] (chicken, 60 seconds), 22.0%. In addition, in data set [3] (chicken, 60 seconds), the “amount of lutein transported across the membrane (bound stated in text)” value (“amount … (bound stated in text)” for short) is given as above 20%.

As to `NCCCN` [1,3-Diaminopropane], the “% peptide transported across membrane” value was 0.2% in data set [3] (Table 2, lutein with the named polyamine or amine moiety, methodology of Example 1) and 4.4% in data set [4] (Table 3, fluorescence-labelled bevacizumab with the named polyamine or amine moiety, methodology of Example 1). Also, the “improvement in the amount of lutein transported across the membrane” value in data set [3] (setting [7]) is recorded as “did not significantly improve”. The “improvement in the amount of bevacizumab transported across the membrane” value in data set [4] is given as “did not significantly improve”.

With `CNCCCN` [3-(Methylamino)propylamine], the “% peptide transported across membrane” value in data set [2] turned out to be 3.4%. In data set [3] (chicken, 60 seconds), the “% peptide transported across membrane” value is 6.5% and the “amount … (bound stated in text)” value is recorded as above 5%.

Regarding `NCCCNCCCN` [Bis(3-aminopropyl)amine], the “amount … compared with the control test” value in data set [1] was “five times more peptide”. For the same compound, in data set [4], the “amount of bevacizumab transported across the membrane compared to the control sample” value is reported as “more than twice as much”.

As for `NCCCCCN` [Cadaverine], the “amount of bevacizumab transported across the membrane compared to the control sample” value in data set [4] is “more than twice as much”.

Regarding `CCCCNCCCC` [Dibutylamine], in data set [2], the “% peptide transported across membrane” value was 4.0%. Also, in data set [3] (chicken, 60 seconds), the “% peptide transported across membrane” value worked out at 10.7% and the “amount … (bound stated in text)” value is above 5%.

With `NCCN` [Ethylenediamine], the “% peptide transported across membrane” value is given as 5.7% in data set [2] and 2.3% in data set [3] (chicken, 60 seconds). Besides, the “improvement in the amount of lutein transported across the membrane” value in data set [3] (setting [7]) is “did not significantly improve”. Further, the “improvement in the amount of bevacizumab transported across the membrane” value in data set [4] is given as “did not significantly improve”.

Consider `N=C(N)N` [Guanidine], for which the “% peptide transported across membrane” value in data set [2] is reported as 4.0%; in data set [3] (chicken, 60 seconds), 8.0%; in data set [5], 7.9%. Moreover, in data set [3] (chicken, 60 seconds), the “amount … (bound stated in text)” value was above 5%.

As to `NCCC(=O)N[C@@H](Cc1cnc[nH]1)C(=O)O` [L-Carnosine], in data set [3], the “% peptide transported across membrane” value turned out to be 7.4% and the “amount … (bound stated in text)” value is listed as above 5%.

For `CC(C)N(CCN)C(C)C` [N,N-Diisopropylethylenediamine], the “% peptide transported across membrane” value in data set [2] came out at 9.1%; in data set [3] (chicken, 60 seconds) it was 6.7%; in data set [5] it was 3.3%. For the same compound, the “amount … (bound stated in text)” value in data set [3] (chicken, 60 seconds) is reported as above 5%.

`NCCCNCCCNCCCN` [N,N′-Bis(3-aminopropyl)-1,3-propanediamine]: the “amount … compared with the control test” value in data set [1] is reported as “five times more peptide”. For the same compound, in data set [2], the “% peptide transported across membrane” value is recorded as 32.4%. In data set [3] (chicken, 60 seconds), the “% peptide transported across membrane” value came to 19.5% and the “amount … (bound stated in text)” value is given as above 5%.

Take `CNCCN` [N-Methylethylenediamine]: in data set [3], the “% peptide transported across membrane” value was 20.9% and the “amount … (bound stated in text)” value is given as above 20%.

Consider `NCCCCN` [Putrescine], for which the “% peptide transported across membrane” value amounted to 6.9% in data set [2] and 12.7% in data set [3] (chicken, 60 seconds). Further, the “amount … (bound stated in text)” value in data set [3] (chicken, 60 seconds) is above 5%.

Take `NCCCCNCCCN` [Spermidine]: the “amount … compared with the control test” value in data set [1] is recorded as “five times more peptide”. Besides, in data set [2], the “% peptide transported across membrane” value is 22.3%. In data set [3] (chicken, 60 seconds), the “% peptide transported across membrane” value stood at 25.7% and the “amount … (bound stated in text)” value is listed as above 20%. For the same compound, the “effect of longer incubation time on amount of bevacizumab transported into the eye tissue” value in data set [6] is given as “increased with increasing incubation time”.

As for `NCCCNCCCCNCCCN` [Spermine], in data set [1], the “amount … compared with the control test” value was “twice as much peptide”. Moreover, the “% peptide transported across membrane” value was determined as 28.1% in data set [2] and 27.8% in data set [3] (chicken, 60 seconds). Besides, the “amount … (bound stated in text)” value in data set [3] (chicken, 60 seconds) was above 20%. Besides, the “effect of longer incubation time on amount of bevacizumab transported into the eye tissue” value in data set [6] was “did not result in higher delivery”.

`NCCNCCNCCNCCN` [Tetraethylenepentamine]: the “% peptide transported across membrane” value is listed as 19.7% in data set [2]; 11.5% in data set [3] (chicken, 60 seconds); 28.8% in data set [5]. Besides, the “amount … (bound stated in text)” value in data set [3] (chicken, 60 seconds) was above 5%.

On to `CCN(CC)CC` [Triethylamine], for which the “% peptide transported across membrane” value in data set [2] was 7.1%; in data set [3] (chicken, 60 seconds), 2.2%. The “improvement in the amount of lutein transported across the membrane” value in data set [3] is “did not significantly improve”.

For the compound `NCCN(CCN)CCN` [Tris(2-aminoethyl)amine], the “% peptide transported across membrane” value in data set [2] was 11.4%; in data set [3] (chicken, 60 seconds), 4.7%; in data set [5], 41.0%.

For `NCCc1ccc(O)cc1` [Tyramine], the “% peptide transported across membrane” value in data set [2] is 5.8%; in data set [3] (chicken, 60 seconds), 14.1%; in data set [5], 11.3%. In addition, the “amount … (bound stated in text)” value in data set [3] (chicken, 60 seconds) is given as above 5%.

Take `NC(N)=O` [Urea]: the “% peptide transported across membrane” value in data set [3] was determined as 1.7%.

Regarding `CC1=C[C@H](O)CC(C)(C)[C@H]1/C=C/C(C)=C/C=C/C(C)=C/C=C/C=C(C)/C=C/C=C(C)/C=C/C1=C(C)C[C@@H](O)CC1(C)C` [lutein, Lutein, reference compound], in data set [3] (chicken, 60 seconds), the “lutein crossed the membrane” value is listed as “about 6%” and the “lutein transported across the membrane” value stood at 0.5%.
